Source: patent publication US11530181B2, “IL-6 inhibitors and methods of treatment” (University of Florida Research Foundation, Incorporated, priority 2018, dated 2022)

What was measured:
Format in all cases: cell-based, human
[1] = system: SUM159 breast cancer cell line; assay: MTT cell viability assay, SUM159; details: for IC50: Homo sapiens; for inhibitory effect compared to parent compound LLM4: SUM159, 25 μM, 48 hours
Experimental: (§1) Human breast cancer cell lines MCF7, MDA-MB-231 and SUM159 were maintained in Dulbecco's modified Eagle medium (DMEM). Human pancreatic cancer cell line BxPC-3 was maintained in RPMI 1640 medium. Human pancreatic cancer cell line Capan-1 was maintained in Iscove's Modified Dulbecco's Medium (IMEM). All media were supplemented with 10% FBS and 1% penicillin/streptomycin, and cells were incubated in a humidified 37° C. incubator with 5% CO2. PE/CA-PJ49 cell line was purchased from external sources and maintained according to manufacturer's protocol.
(§2) Cell viability was evaluated by using the MTT assay in triple replicates in one experiment and repeated for three times. Cancer cells were seeded in 96-well plates at a density of 3,000 cells per well. The cells were incubated at 37° C. for a period of 24 hours. Escalating concentrations of IL-6/gp130 inhibitors were added in triplicate to the plates in the presence of 10% FBS. After incubation for 48 or 72 hours, a stock solution of MTT (0.5 mg/ml) was then added to each well containing the treated cells, followed by incubation at 37° C. for 3 h. After removal of medium, the MTT dye was dissolved with spectrophotometric grade DMSO and the absorbance was read at 570 nm. The IC50 value is determined by interpolation based on the absorbance value halfway between positive and negative controls.

[2] = system: IL-6 induced STAT3 phosphorylation; assay: Western blot, IL-6 induced STAT3 phosphorylation in MCF7
Experimental: Cells were harvested and lysed in cold radioimmunoprecipitation assay (RIPA) lysis buffer containing proteasome inhibitor cocktail and phosphatase inhibitor cocktail. The protein concentrations were determined using the BCA Protein Assay kit. After adding the loading buffer and boiling at 95° C. for 10 minutes, equivalent amounts of proteins were loaded on and separated by SDS-PAGE, and then were transferred to PVDF membranes. Membranes were probed with primary antibodies (1:1000) against phospho-STAT3 (Tyr705), STAT3, phospho-STAT1 (Tyr701), STAT1, phospho-STAT6 (Tyr 641), STAT6, and GAPDH, respectively, and horseradish peroxidase (HRP)-conjugated secondary antibody (1:10000) (Cell Signaling Technology, Beverly, Mass.). Membranes were analyzed using Enhanced Chemiluminescence Plus reagents and either scanned with the Storm Scanner (Amersham Pharmacia Biotech, Inc., Piscataway, N.J.) or imaged with ChemiDoc MP imaging system (Bio-Rad, Hercules, Calif.). For cytokine induction of STAT3 phosphorylation, MCF-7 breast cancer cells were seeded in 10 cm plates (1 million cells per plate) and allowed to adhere overnight followed by serum-starvation. […] After designated hours, LLM-418 treated and untreated cells were stimulated by IL-6, LIF, and OSM (50 ng/mL). The cells were harvested after 30 minutes and analyzed by Western blot.
MCF7 breast cancer cells were seeded in 10 cm plates (1 million cells per plate) and allowed to adhere overnight. The following day, the cells were serum-starved. The cells were then left untreated or treated with LLM4 (5-20 μM). After designated hours, the LLM4 treated and untreated cells were stimulated by IL-6, LIF, OSM, CNTF, CT-1, IL-11, IL-4 or INF-γ (50 ng/ml). The cells were harvested after 30 minutes and analyzed by western blotting.

[3] = system: BxPC-3 pancreatic cancer cell line; assay: MTT cell viability assay, BxPC-3; details: for inhibitory effect compared to parent compound LLM4: BxPC-3, 25 μM, 48 hours; for IC50: Homo sapiens
Experimental: as §1
as §2, with “controls. In the experiment of LLM4 showing higher efficacy in cancer cells with higher levels of IL-6, instead of using medium with 10% FBS, DMEM with 0% FBS was used in order to eliminate the influence of trace amounts of growth factors and cytokines in FBS.” for “controls.”

[4] = system: multiple myeloma cell line U266; assay: Cell viability assay, U266; details: for IC50: Homo sapiens, U-266, U266, 72 h; for inhibitory effect compared to parent compound LLM4: U266, 25 μM, 48 and 72 hours
Experimental: as §2, with “controls. In the experiment of LLM4 showing higher efficacy in cancer cells with higher levels of IL-6, instead of using medium with 10% FBS, DMEM with 0% FBS was used in order to eliminate the influence of trace amounts of growth factors and cytokines in FBS.” for “controls.”
It was reported in multiple myeloma cell line U266 that IL-6 is also elevated and of great importance for cancer progression [Jernberg W, Pettersson M, Carlsson M, et al. Increase in interleukin 6 (IL-6) and IL-6 receptor expression in a human multiple myeloma cell line, U-266, during long-term in vitro culture and the development of a possible autocrine IL-6 loop 1. Leukemia. 1992, 4, 310-318]. These novel IL-6/gp130 inhibitors were tested in U266 cells at a concentration of 25 μM for an incubation time of 48 and 72 hours. MDL16 and LLM4 were used as control compounds.

[5] = system: IL-4 induced STAT6 phosphorylation; assay: Western blot, IL-4 induced STAT6 phosphorylation in MCF7; details: MCF7, pre-treatment 2, 3 and 4 hours
Experimental: Cells were harvested and lysed in cold radioimmunoprecipitation assay (RIPA) lysis buffer containing proteasome inhibitor cocktail and phosphatase inhibitor cocktail. The protein concentrations were determined using the BCA Protein Assay kit. After adding the loading buffer and boiling at 95° C. for 10 minutes, equivalent amounts of proteins were loaded on and separated by SDS-PAGE, and then were transferred to PVDF membranes. Membranes were probed with primary antibodies (1:1000) against phospho-STAT3 (Tyr705), STAT3, phospho-STAT1 (Tyr701), STAT1, phospho-STAT6 (Tyr 641), STAT6, and GAPDH, respectively, and horseradish peroxidase (HRP)-conjugated secondary antibody (1:10000) (Cell Signaling Technology, Beverly, Mass.). Membranes were analyzed using Enhanced Chemiluminescence Plus reagents and either scanned with the Storm Scanner (Amersham Pharmacia Biotech, Inc., Piscataway, N.J.) or imaged with ChemiDoc MP imaging system (Bio-Rad, Hercules, Calif.). […] The cells were harvested after 30 minutes and analyzed by Western blot.
MCF7 breast cancer cells were seeded in 10 cm plates (1 million cells per plate) and allowed to adhere overnight. […] The cells were harvested after 30 minutes and analyzed by western blotting.

[6] = MCF7, 1-4 μM, 5 h, IL-6 50 ng/ml

IC50 ([1]; SUM159, 48 h)	IC50 ([1]; SUM159, SUM159, Table 7)	IC50 ([3]; BXPC-3, 48 h)	IC50 ([3]; BxPC-3, Table 7)	IC50 [4]	IC50 ([1]; SUM159, SUM159 human breast cancer cell line, MTT)	IC50 ([3]; BxPC-3, text b401)	SMILES	inhibitory effect compared to parent compound LLM4 [1]	inhibition of IL-6 induced STAT3 phosphorylation [2, 6]	inhibitory effect compared to parent compound LLM4 [3]	inhibitory effect compared to parent compound LLM4 [4]	effect on IL-4 induced STAT6 phosphorylation ([5]; 15 μM)	inhibition of IL-6 induced STAT3 phosphorylation ([2]; MCF7, 15 μM, 2, 3 and 4 hours)	inhibition of STAT3 phosphorylation induced by IL-6 ([2]; MCF7, 20 μM)	amount of P-STAT3 stimulated by IL-6 ([2]; MCF7, 5-20 μM, 5 h, IL-6 50 ng/ml, western blot)	phosphorylation of STAT3 induced by IL-6 ([2]; MCF7, treatment with 10 LLM4)	effect on STAT6 phosphorylation [5]	inhibition of IL-6 induced STAT3 phosphorylation ([2]; MCF7, 4 μM, 2, 3 and 4 hours)
2800 nM	2800 nM	8300 nM	8300 nM	1900 nM			O=C(Nc1cccc(OCCN2CCCCC2)c1)Nc1cccc(-c2ccn[nH]2)c1 [LLM414, 1-(3-(1H-pyrazol-5-yl)phenyl)-3-(3-(2-(piperidin-1-yl)ethoxy)phenyl)urea]	greater inhibitory effect	inhibited STAT3 phosphorylation stimulated by IL-6 in MCF7 cells in a dose dependent manner	greater inhibitory effect	greater inhibitory effects							
14500 ± 3500 nM		10900 ± 5700 nM		10900 ± 1500 nM	17000 ± 5500 nM	3900 nM	O=C(Nc1cc(F)ccc1-n1cccc1)c1ccc(OCCCN2CCCCC2)cc1 [LLM4, N-(5-fluoro-2-(1H-pyrrol-1-yl)phenyl)-4-(3-(piperidin-1-yl)propoxy)benzamide]					no effect	inhibit IL-6 induced STAT3 phosphorylation quite effectively	almost complete inhibition	decreased with increasing concentrations	Significant reduction		
1700 nM	1700 nM	1200 nM	1200 nM	1200 nM			O=C(Nc1ccccc1-c1ccn[nH]1)c1ccc(OCCN2CCCCC2)cc1 [LLM418, N-(2-(1H-pyrazol-5-yl)phenyl)-4-(2-(piperidin-1-yl)ethoxy)benzamide]	greater inhibitory effect	inhibited STAT3 phosphorylation stimulated by IL-6 in MCF7 cells in a dose dependent manner	greater inhibitory effect	greater inhibitory effects						little effect	inhibit IL-6 induced STAT3 phosphorylation quite effectively
